Laboratory results reported in US8722676B2, “Bicyclic piperazine compounds” (Genentech, Inc., priority 2011, dated 2014).

These compounds were tested on production of CD69 by B lymphocytes in human whole blood activated with goat F(ab')2 anti-human IgM (assay: CD69 Whole Blood Assay (CD69 Hu Blood FACS)). Conditions: anti-IgM stimulated, 20 hour incubation, CD69+ of CD20+ cells, Table 1.
Assay type: cell-based
Excerpt: A CD69 Whole Blood Assay can be conducted on Formula I compounds to determine the ability of compounds to inhibit the production of CD69 by B lymphocytes in human whole blood activated by crosslinking surface IgM with goat F(ab′)2 anti-human IgM (Example 907). CD69 is a type II C-type lectin involved in lymphocyte migration and cytokine secretion. CD69 expression represents one of the earliest available indicators of leukocyte activation and its rapid induction occurs through transcriptional activation (Vazquez et al (2009) Jour. of Immunology Published Oct. 19, 2009, doi:10.4049/jimmunol.0900839). Concentration-dependent inhibition of antigen receptor stimulation by selective Btk inhibitors induces cell surface expression of the lymphocyte activation marker CD69 (Honigberg et al (2010) Proc. Natl. Acad. Sci. 107(29):13075-13080). Thus, CD69 inhibition by selective Btk inhibitors may be correlated with therapeutic efficacy of certain B-cell disorders.
Human blood is obtained from healthy volunteers, with the following restrictions: 1 week drug-free, non-smokers. Blood (approximately 20 mls to test 8 compounds) is collected by venipuncture into Vacutainer® (Becton, Dickinson and Co.) tubes with sodium heparin.
Solutions of Formula I compounds at 10 mM in DMSO are diluted 1:10 in 100% DMSO, then are diluted by three-fold serial dilutions in 100% DMSO for a ten point dose-response curve. The compounds are further diluted 1:10 in PBS and then an aliquot of 5.5 μl of each compound is added in duplicate to a 2 ml 96-well plate; 5.5 μl of 10% DMSO in PBS is added as control and no-stimulus wells. Human whole blood—HWB (100 μl) is added to each well. After mixing the plates are incubated at 37° C., 5% CO2, 100% humidity for 30 minutes. Goat F(ab′)2 anti-human IgM (10 μl of a 500 μg/ml solution, 50 μg/ml final) is added to each well (except the no-stimulus wells) with mixing and the plates are incubated for an additional 20 hours. At the end of the 20 hour incubation, samples are incubated with fluorescent labeled antibodies for 30 minutes, at 37° C., 5% CO2, 100% humidity. Include induced control, unstained and single stains for compensation adjustments and initial voltage settings. Samples are then lysed with PharM Lyse™ (BD Biosciences Pharmingen) according to the manufacturer's instructions. Samples are then transferred to a 96 well plate suitable to be run on the BD Biosciences HTS 96 well system on the LSRII machine. Data acquired and Mean Fluorescence Intensity values were obtained using BD Biosciences DIVA Software. Results are initially analyzed by FACS analysis software (Flow Jo).
`O=C1c2cc3c(n2CCN1c1cc(F)cc(-c2cc(Nc4ccc(N5CCN(C6COC6)CC5)cn4)c4nccn4c2)c1CO)CCCC3` [Compound 102, 2-(5-Fluoro-2-(hydroxymethyl)-3-(8-(5-(4-(oxetan-3-yl)piperazine-1-yl)pyridine-2-ylamino)imidazo[1,2-a]pyridin-6-yl)phenyl)-3,4,6,7,8,9-hexahydro-pyrazino[1,2-a]indol-1(2H)-one] showed a CD69 Hu Blood FACS IC70 of 0.011 µM.
Work on `O=c1c2sc3c(c2cnn1-c1cc(F)cc(-c2cc(Nc4ccc(N5CCN(C6COC6)CC5)cn4)c4nccn4n2)c1CO)CCCC3` [Compound 112, 5-[5-Fluoro-2-(hydroxymethyl)-3-(8-(5-(4-(oxetan-3-yl)piperazin-1-yl)pyridin-2-ylamino)imidazo[1,2-b]pyridazin-6-yl)phenyl]-8-thia-4,5-diazatricyclo-[7.4.0.0^2,7]trideca-1(9),2(7),3-trien-6-one] yielded a CD69 Hu Blood FACS IC70 of 0.126 µM.
With `CC1(C)Cc2sc3c(c2C1)CCN(c1cc(F)cc(-c2cc(Nc4ccc(N5CCN(C6COC6)CC5)cn4)c4nccn4n2)c1CO)C3=O` [Compound 113, 10-[5-Fluoro-2-(hydroxymethyl)-3-(8-(5-(4-(oxetan-3-yl)piperazin-1-yl)pyridine-2-ylamino)imidazo[1,2-b]pyridazin-6-yl)phenyl]-4,4-dimethyl-7-thia-10-azatricyclo[6.4.0.0^2,6]dodeca-1(8),2(6)-dien-9-one] the CD69 Hu Blood FACS IC70 was 0.012 µM.
`O=C1c2cc3c(n2CCN1c1cc(F)cc(-c2cc(Nc4ccc(N5CCN(C6COC6)CC5)cn4)c4nccn4n2)c1CO)CCCC3` [Compound 105, 2-(5-Fluoro-2-(hydroxymethyl)-3-(8-(5-(4-(oxetan-3-yl)piperazin-1-yl)pyridin-2-ylamino)imidazo[1,2-b]pyridazin-6-yl)phenyl)-3,4,6,7,8,9-hexahydro-pyrazino[1,2-a]indol-1(2H)-one] was tested, and the CD69 Hu Blood FACS IC70 was 0.049 µM.
`CN1CCN(c2ccc(Nc3nc(-c4cc(F)cc(N5CCn6c(cc7c6CCCC7)C5=O)c4CO)cn4ccnc34)nc2)CC1` [Compound 106, 2-(5-Fluoro-2-(hydroxymethyl)-3-(8-(5-(4-methylpiperazin-1-yl)pyridin-2-ylamino)imidazo[1,2-a]pyrazin-6-yl)phenyl)-3,4,6,7,8,9-hexahydropyrazino[1,2-a]indol-1(2H)-one] was tested, and the CD69 Hu Blood FACS IC70 was 0.814 µM.
`CN1CCN(c2ccc(Nc3cc(-c4cc(F)cc(N5CCc6c(sc7c6CCCC7)C5=O)c4CO)cn4ccnc34)nc2)CC1` [Compound 103, 5-[5-Fluoro-2-(hydroxymethyl)-3-{(8-(5-(4-methylpiperazin-1-yl)pyridine-2-ylamino)imidazo[1,2-a]pyridin-6-yl)}phenyl]-8-thia-5-azatricyclo[7.4.0.0^2,7]trideca-1(9),2(7)-dien-6-one] was tested, and the CD69 Hu Blood FACS IC70 was 0.319 µM.
`CC1(C)Cc2cc3n(c2C1)CCN(c1cc(F)cc(-c2cc(Nc4ccc(N5CCN(C6COC6)CC5)cn4)c4nccn4n2)c1CO)C3=O` [Compound 110, 10-[5-Fluoro-2-(hydroxymethyl)-3-(8-(5-(4-(oxetan-3-yl)piperazin-1-yl)pyridin-2-ylamino)imidazo[1,2-b]pyridazin-6-yl)phenyl]-4,4-dimethyl-1,10-diazatricyclo[6.4.0.0^2,6]dodeca-2(6),7-dien-9-one] showed a CD69 Hu Blood FACS IC70 of 0.015 µM.
Compound `O=C1c2cc3c(n2CCN1c1nccc(-c2cc(Nc4ccc(N5CCN(C6COC6)CC5)cn4)c4nccn4n2)c1CO)CCCC3` [Compound 114, 2-(3-(Hydroxymethyl)-4-(8-(5-(4-(oxetan-3-yl)piperazin-1-yl)pyridin-2-ylamino)imidazo[1,2-b]pyridazin-6-yl)pyridin-2-yl)-3,4,6,7,8,9-hexahydropyrazino[1,2-a]indol-1(2H)-one] has a CD69 Hu Blood FACS IC70 of 0.118 µM.
For `O=C1c2cc3c(n2CCN1c1cc(F)cc(-c2cc(Nc4ccc(N5CCN(C6COC6)CC5)cn4)c4ncnn4c2)c1CO)CCCC3` [Compound 108, 2-(5-Fluoro-2-(hydroxymethyl)-3-(8-(5-(4-(oxetan-3-yl)piperazin-1-yl)pyridin-2-ylamino)-[1,2,4]triazolo[1,5-a]pyridin-6-yl)phenyl)-3,4,6,7,8,9-hexahydropyrazino[1,2-a]indol-1(2H)-one], the CD69 Hu Blood FACS IC70 was 0.058 µM.
With `O=C1c2cc3c(n2CCN1c1cc(F)cc(-c2cn4ccnc4c(Nc4ccc(N5CCN(C6COC6)CC5)cn4)n2)c1CO)CCCC3` [Compound 107, 2-(5-Fluoro-2-(hydroxymethyl)-3-(8-(5-(4-(oxetan-3-yl)piperazin-1-yl)pyridin-2-ylamino)imidazo[1,2-a]pyrazin-6-yl)phenyl)-3,4,6,7,8,9-hexahydro-pyrazino[1,2-a]indol-1(2H)-one] the CD69 Hu Blood FACS IC70 was 0.939 µM.
Work on `CN1CCN(c2ccc(Nc3cc(-c4cc(F)cc(N5CCn6c(cc7c6CCCC7)C5=O)c4CO)nn4ccnc34)nc2)CC1` [Compound 104, 2-(5-Fluoro-2-(hydroxymethyl)-3-(8-(5-(4-methylpiperazin-1-yl)pyridin-2-ylamino)imidazo[1,2-b]pyridazin-6-yl)phenyl)-3,4,6,7,8,9-hexahydropyrazino[1,2-a]indol-1(2H)-one] yielded a CD69 Hu Blood FACS IC70 of 0.096 µM.
In the case of `CN1CCN(c2ccc(Nc3cc(-c4cc(F)cc(N5CCn6c(cc7c6CCCC7)C5=O)c4CO)cn4ccnc34)nc2)CC1` [Compound 101, 2-(5-Fluoro-2-(hydroxymethyl)-3-(8-(5-(4-methylpiperazin-1-yl)pyridin-2-ylamino)imidazo[1,2-a]pyridin-6-yl)phenyl)-3,4,6,7,8,9-hexahydropyrazino[1,2-a]indol-1(2H)-one], the CD69 Hu Blood FACS IC70 is reported as 0.007 µM.

Same assay, conditions: anti-IgM stimulated, 20 hour incubation, CD69+ of CD20+ cells, Table 2
Compound `CC1(C)Cc2cc3n(c2C1)CCN(c1cc(F)cc(-c2nc(Nc4ccc(N5CCN(C6COC6)CC5)cc4)c4nc[nH]c4n2)c1CO)C3=O` [Compound 123, 3-[5-fluoro-2-(hydroxymethyl)-3-[6-[4-[4-(oxetan-3-yl)piperazin-1-yl]anilino]-9H-purin-2-yl]phenyl]-7,7-dimethyl-1,2,6,8-tetrahydrocyclopenta[3,4]pyrrolo[3,5-b]pyrazin-4-one] has a CD69 Hu Blood FACS IC70 of 0.256 µM.
For `O=C1c2cc3n(c2CCN1c1cc(F)cc(-c2nc(Nc4ccc(N5CCN(C6COC6)CC5)cc4)c4nc[nH]c4n2)c1CO)CCCC3` [Compound 120, 2-[5-fluoro-2-(hydroxymethyl)-3-[6-[4-[4-(oxetan-3-yl)piperazin-1-yl]anilino]-9H-purin-2-yl]phenyl]-3,4,6,7,8,9-hexahydropyrido[3,4-b]indolizin-1-one], the CD69 Hu Blood FACS IC70 was 1.9 µM.
`O=C1c2cc3c(n2CCN1c1cc(F)cc(-c2nc(Nc4ccc(N5CCN(C6COC6)CC5)cc4)c4nc[nH]c4n2)c1CO)CCCC3` [Compound 117, 2-[5-fluoro-2-(hydroxymethyl)-3-[6-[4-[4-(oxetan-3-yl)piperazin-1-yl]anilino]-9H-purin-2-yl]phenyl]-3,4,6,7,8,9-hexahydropyrazino[1,2-a]indol-1-one] was tested, and the CD69 Hu Blood FACS IC70 was 0.812 µM.
`O=C1c2cc3c(n2CCN1c1nccc(-c2cc(Nc4ccc(N5CCN(C6COC6)CC5)cn4)c4ncnn4c2)c1CO)CCCC3` [Compound 122, 2-[3-(hydroxymethyl)-4-[8-[[5-[4-(oxetan-3-yl)piperazin-1-yl]-2-pyridyl]amino]-[1,2,4]triazolo[1,5-a]pyridin-6-yl]-2-pyridyl]-3,4,6,7,8,9-hexahydropyrazino[1,2-a]indol-1-one] was tested, and the CD69 Hu Blood FACS IC70 was 0.208 µM.
`O=C1c2cc3c(n2CCN1c1cc(F)cc(-c2cc(Nc4ccc(N5CCN(C6COC6)CC5)cn4)c4nc[nH]c4c2)c1CO)CCCC3` [Compound 116, 2-[5-fluoro-2-(hydroxymethyl)-3-[7-[[5-[4-(oxetan-3-yl)piperazin-1-yl]-2-pyridyl]amino]-3H-benzimidazol-5-yl]phenyl]-3,4,6,7,8,9-hexahydropyrazino[1,2-a]indol-1-one] showed a CD69 Hu Blood FACS IC70 of 1.3 µM.
`O=C1c2cc3c(n2CCN1c1nccc(-c2cc(Nc4ccc(N5CCN(C6COC6)CC5)cn4)c4nccn4c2)c1CO)CCCC3` [Compound 121, 2-[3-(hydroxymethyl)-4-[8-[[5-[4-(oxetan-3-yl)piperazin-1-yl]-2-pyridyl]amino]imidazo[1,2-a]pyridin-6-yl]-2-pyridyl]-3,4,6,7,8,9-hexahydropyrazino[1,2-a]indol-1-one] gave a CD69 Hu Blood FACS IC70 of 0.279 µM.
`O=C1c2sc3c(c2CCN1c1cc(F)cc(-c2nc(Nc4ccc(N5CCN(C6COC6)CC5)cc4)c4nc[nH]c4n2)c1CO)CCCC3` [Compound 119, 2-[5-fluoro-2-(hydroxymethyl)-3-[6-[4-[4-(oxetan-3-yl)piperazin-1-yl]anilino]-9H-purin-2-yl]phenyl]-3,4,5,6,7,8-hexahydrobenzothiopheno[2,3-c]pyridin-1-one] gave a CD69 Hu Blood FACS IC70 of 0.727 µM.
